Reference: article PMC12592502, “Unraveling the mechanisms behind the enhanced efficacy of β-lactam-based sideromycins” (Communications Biology, 2025)
Converted amounts (≈) assume the structure as drawn. Read-outs that look alike come from different tables or passages of the source.

How the values were obtained:
[1] = system: E. coli ΔcirA; test: MIC, Keio mutant; type: cell-based, Escherichia coli; conditions: Escherichia coli
Experimental: (§1) All bacterial strains (see description and sources Table S1) were stored at −80 °C, and grown on tryptone soya agar (TSA) at 35 °C. The iron-deprived (ID)-MHBCA (cation-adjusted Muller-Hinton Broth, Becton Dickinson, Mississauga, ON, Canada) medium was prepared as reported by refs. [21],[50]. Briefly, MHBCA was treated with 10% Chelex® 50-100 mesh (Sigma) and stirred for 6 h at room temperature. The resin was removed by filtration. Divalent Ca^2+ (CaCl2), Mg^2+ (MgCl2), and Zn^2+(ZnSO4), were then added in the iron-depleted medium at 22, 12, and 1 μg/ml respectively. Finally, the pH was adjusted to 7.3, and the medium was sterilized with a 0.2-μm filter. Regular MHBCA (i.e., not treated with Chelex®) was used to compare the inhibitory activity of conjugates in iron-sufficient conditions.
(§2) Minimal inhibitory concentrations (MICs) were performed using a broth microdilution technique according to the Clinical and Laboratory Standards Institute (CLSI) guidelines. MICs were determined in MHBCA and in ID-MHBCA. To check the impact of β-lactamases, MICs in the presence of a β-lactamase inhibitor were also determined. The inhibitor was homogenized at 2X the final concentration and added to the bacterial inoculum just before distributing cells into the wells containing the drug dilutions. The final concentration of each inhibitor was 4 μg/mL for clavulanic acid (tested against K. pneumoniae) and 200 μg/mL for 3-aminophenylboronic acid (tested against P. aeruginosa and A. baumannii).

[2] = system: E. coli ΔfhuA; test: MIC, Keio mutant; type: cell-based, Escherichia coli; conditions: Escherichia coli, ID-MHBCA
Experimental: as §1, §2

[3] = system: E. coli Δfiu; test: MIC, Keio mutant; type: cell-based, Escherichia coli
Experimental: as §1, §2

[4] = system: E. coli ΔacrAB; test: MIC, efflux pump mutant; type: cell-based, Escherichia coli; conditions: Escherichia coli
Experimental: as §2

[5] = system: P. aeruginosa 1020; test: MIC, parent of efflux pump mutants; type: cell-based, Pseudomonas aeruginosa; conditions: Pseudomonas aeruginosa; P. aeruginosa 1020; read-out: MIC
Experimental: as §2

[6] = system: P. aeruginosa 1625 ΔmexAB-oprM, ΔmexEF-oprN; test: MIC, efflux pump mutant; type: cell-based, Pseudomonas aeruginosa; conditions: Pseudomonas aeruginosa
Experimental: as §2

[7] = system: P. aeruginosa 1624 ΔmexCD-oprJ, ΔmexEF-oprN; test: MIC, efflux pump mutant; type: cell-based, Pseudomonas aeruginosa; conditions: Pseudomonas aeruginosa
Experimental: as §2

[8] = system: P. aeruginosa 2302 MexAB, MexCD, MexEF upregulated; test: MIC, efflux pump overexpressing strain; type: cell-based, Pseudomonas aeruginosa; conditions: Pseudomonas aeruginosa
Experimental: as §2

[9] = system: P. aeruginosa ATCC 27853; test: MIC, broth microdilution (CLSI); type: cell-based, Pseudomonas aeruginosa; conditions: for MIC: Pseudomonas aeruginosa
Experimental: as §1, §2

[10] = system: A. baumannii ATCC 19606; test: MIC, broth microdilution (CLSI); type: cell-based, Acinetobacter baumannii; conditions: for MIC: Acinetobacter baumannii
Experimental: as §1, with “conditions. The resin used for Chelex treatment was always fresh and had never been regenerated, ensuring consistent iron removal.” for “conditions.”
as §2

[11] = system: E. coli lptD4213; test: MIC, hyperpermeable mutant; type: cell-based, Escherichia coli; conditions: Escherichia coli
Experimental: as §1, with “conditions. The resin used for Chelex treatment was always fresh and had never been regenerated, ensuring consistent iron removal.” for “conditions.”
as §2

[12] = ID-MHBCA, 0 and 1 µg/mL supplemental iron (Table S2)
[13] = ID-MHBCA, 1 versus 0 µg/mL supplemental iron (peer review file table)

## CC1(C)SC2C(NC(=O)C(NC(=O)CN(CCCCNC(=O)c3cccc(O)c3O)C(=O)c3cccc(O)c3O)c3ccccc3)C(=O)N2C1C(=O)O (stereo not drawn) [BAMP, bis-catechol (azotochelin)-ampicillin]
[1]; ID-MHBCA
  MIC: 0.2 to 13 µM (≈ 0.15 to 9.75 µg/mL)
[1]; MHBCA
  MIC: 13 µM (≈ 9.75 µg/mL)
[2]
  MIC: 0.1 µM (≈ 0.075 µg/mL)
[3]; Escherichia coli, ID-MHBCA
  MIC: 0.024 µM (≈ 0.018 µg/mL)
[3]; Escherichia coli, MHBCA
  MIC: 0.1 to 0.4 µM (≈ 0.075 to 0.3 µg/mL)
[3]; MHBCA
  MIC: 0.2 µM (≈ 0.15 µg/mL)
[4]
  MIC: 0.05 µM (≈ 0.0375 µg/mL)
[5]
  MIC: 0.4 µM (≈ 0.3 µg/mL)
[6]
  MIC: 0.2 µM (≈ 0.15 µg/mL)
[7]
  MIC: 0.4 µM (≈ 0.3 µg/mL)
[8]
  MIC: 0.4 µM (≈ 0.3 µg/mL)
[9]; 25 µg/mL PAβN
  potentiation of activity (MIC decrease) by PAβN: 8 fold
[9]; ID-MHBCA
  MIC ratio unconjugated β-lactam/conjugate: >2048
[9]; [12]
  MIC ratio 0/1: 128
[9]; [13]
  MIC ratio 1/0: 128
[9]; MHBCA
  MIC ratio unconjugated β-lactam/conjugate: >128
[9]; MHBCA, + 25 µg/mL PAβN
  MIC in combination with PAβN: 0.2 µM
[9]; ATCC27853, ID-MHBCA (−), 0 µg/mL supplemental iron, read-out: MIC
  MIC: 0.1 µM (≈ 0.075 µg/mL)
[9]; ATCC27853, ID-MHBCA + 0.1 µg/mL supplemental iron, read-out: MIC
  MIC: 0.8 µM
[9]; ATCC27853, ID-MHBCA + 1 µg/mL supplemental iron, read-out: MIC
  MIC: 13 µM
[9]; ATCC27853, ID-MHBCA, + 200 μg/mL APB, read-out: MIC with β-lactamase inhibitor (βI)
  MIC: 0.1 µM
[9]; ATCC27853, MHBCA (+), no inhibitor, read-out: MIC
  MIC: 1.6 µM (≈ 1.2 µg/mL)
[9]; ATCC27853, MHBCA, + 200 μg/mL 3-aminophenylboronic acid (APB), read-out: MIC with β-lactamase inhibitor (βI)
  MIC: 1.6 µM
[10]; ATCC19606, ID-MHBCA (−), 0 µg/mL supplemental iron, read-out: MIC
  MIC: 0.2 µM (≈ 0.15 µg/mL)
[10]; ATCC19606, ID-MHBCA + 0.1 µg/mL supplemental iron, read-out: MIC
  MIC: 0.4 µM
[10]; ATCC19606, ID-MHBCA + 1 µg/mL supplemental iron, read-out: MIC
  MIC: 1.6 µM
[10]; ATCC19606, ID-MHBCA, + 200 μg/mL APB, read-out: MIC with β-lactamase inhibitor (βI)
  MIC: 0.1 µM
[10]; ATCC19606, MHBCA (+), no inhibitor, read-out: MIC
  MIC: 0.4 µM (≈ 0.3 µg/mL)
[10]; ATCC19606, MHBCA, + 200 μg/mL APB, read-out: MIC with β-lactamase inhibitor (βI)
  MIC: 0.2 µM
[10]; ID-MHBCA
  MIC ratio unconjugated β-lactam/conjugate: >1024
[10]; [12]
  MIC ratio 0/1: 8
[10]; [13]
  MIC ratio 1/0: 8
[10]; MHBCA
  MIC ratio unconjugated β-lactam/conjugate: >512
[10]; MHBCA, + 25 µg/mL PAβN
  MIC in combination with PAβN: > 6.3 µM
[11]; LPTD4213, lptD4213, ID-MHBCA (−)
  MIC: 0.024 µM (≈ 0.018 µg/mL)
[11]; LPTD4213, lptD4213, MHBCA (+)
  MIC: 0.05 µM (≈ 0.0375 µg/mL)
